Measurements reported in US6511453B2, “Device for controlled anaesthesia, analgesia and/or sedation” (priority 1997, dated 2003).

Key:
[1] = Loading of emulsions with xenon (xenon uptake, stability); assay type: physicochemical; conditions: 10% by weight fatty emulsion saturated with xenon
Protocol: The loading capacity of the abovementioned perfluorocarbon preparation is considerable. Xenon loads of e.g. 1 to 10 ml/ml have been achieved by the simplest means. For example, these preparations can be loaded with inert gas simply by having the gas passed through them.
Thus, even by the simplest means, xenon can be dissolved or dispersed in concentrations of 0.2 to 10 ml or more per ml of fatty emulsion (concentrations relate to standard conditions, i.e. 20° C. and normal pressure). The xenon concentration depends on a large number of factors, especially the concentration of the fat. As a rule the preparations will be “loaded” with xenon up to the saturation limit. However, it is also possible for very small concentrations to be present, provided, for example, that a pharmacological activity can still be observed on intravenous administration. In the case of a 10% fatty emulsion, it is easily possible to reach xenon concentrations of 0.3 to 2 ml of xenon per ml of fatty emulsion. It is of course also possible to reach higher values, e.g. 3, 4, 5, 6 or 7 ml of xenon per ml of fatty emulsion. These fatty emulsions are sufficiently stable, at least in gas-tight containers, for the xenon not to be released as a gas over conventional storage periods. […]

patient = test: Intravenous infusion of xenon-containing emulsion in a patient; conditions: in vivo
Protocol: To achieve a subanaesthetic action, the xenon load in the medicinal preparation need only be about 0.2 to 0.3 ml of xenon per ml of emulsion. This means that an analgesic and/or sedative action is assured for preparations with a xenon content of at least 0.2 ml/ml emulsion. An anti-inflammatory action is already observed at 0.1 ml/ml emulsion. […] When working with a highly laden perfluorocarbon emulsion containing 2 to 4 ml of xenon per ml of emulsion, for example, 20 ml of this emulsion are infused over 30 sec, for example, in order to induce anaesthesia. An infusion rate of at least 7.5 ml/min is sufficient to maintain the anaesthesia. A total of 470 ml of emulsion would thus be used for a 1-hour operation. With a xenon content of 3 ml of xenon per ml of emulsion, this corresponds to a xenon volume of 1410 ml, i.e. a fraction of the xenon consumed in inhalation anaesthesia (based on a body weight of 85 kg, this would be a consumption of 16.6 ml per kg in one hour).

[Xe] [xenon, Xenon]
Xenon content at saturation [1]: about 0.3 ml of xenon per ml of emulsion | Xenon content at which an anti-inflammatory action is observed (patient): 0.1 ml/ml emulsion | Xenon content that assures an analgesic and/or sedative action (patient): at least 0.2 ml/ml emulsion
